For assay [1], the system named is SYN1, SCL17A7/VGLUT, PSD95, HOMER1. Nature of the assay: Synaptic marker mRNA and protein levels in iNs. In kind it is cell-based, human. How it is done:
Quantitative reverse transcription PCR (qRT-PCR) was performed as previously described. Specifically, cell cultures were harvested with Trizol and total RNA extraction was carried out following the manufacturer's instructions. Quantitative transcript analysis was performed using a QuantStudio 7 Flex Real-Time PCR System with the Power SYBR Green RNA-to-Ct Real-Time qPCR Kit (all Thermo Fisher Scientific). Total RNA template (25 ng per reaction) was added to the PCR mix, including primers listed below. qPCR conditions were as follows; 48° C. for 30 min, 95° C. for 10 min followed by 40 cycles (95° C. for 15 s, 60° C. for 60 s). All qPCR data is collected from at least 3 independent biological replicates of one experiment. Data analyses were performed using GraphPad PRISM 6 software.
Images were captured and quantified using the Odyssey® Imaging Systems (LI-COR. Inc.).

Assay [2] deals with hiPSC-derived NGN2 neurons. Nature of the assay: Multi-electrode array (MEA) neuronal activity. Format: cell-based, human. The settings on record: 3 μM NCH-51. As to the method:
To evaluate electrical activity of NGN2-neurons by MEA, density-matched isogenic NGN2-neuronal populations, co-cultured with pHAs, were prepared as described above. Specifically, at day 3, pHAs were split as 17,000 cells/well in a Matrigel-coated 48W MEA plate (Axion Biosystems, M768-tMEA-48W) and maintained as above. At day 7, NGN2-neurons were detached, spun down and seeded on the pHA culture. Outer space of each well in the plate was filled up with autoclaved/deionized water to minimize the evaporation of marginal wells (“edge effect”) during long-term culture. Half volume of neuronal medium (supplemented with 2% FBS) was replaced with fresh medium including 200 nM Ara-C from day 9 until the end of MEA recording. Electrical activity of neurons was recorded daily during day 14-24. On the recording day, the plate was loaded into the Axion Maestro MEA reader (Axion Biosystems). Recording was performed via AxiS 2.4 for 10 mins. Quantitative analysis of the recording was exported as a Microsoft excel sheet. Data were analyzed using GraphPad PRISM 6 software.
A stock solution of LQ081-166 (molecular weight: 452.63) at 3 mM is prepared in dimethyl sulfoxide (DMSO). Once prepared, aliquot the stock solution into 100 μL amounts and store at −80° C. Avoid repeated freeze-thaw cycles. The stock is diluted 1000× into neuronal medium to obtain 3 μM for assays. After 24-hour treatment, RNA was extracted from cells for quantitative PCR. In the MEA assay, LQ081-166 was added on neuronal differentiation day 14. Replace with medium containing drug or vehicle every 2-3 days until the final recording day.

Assay [3] deals with Vha68-1, Vha68-2 (fly orthologs of ATP6V1A). Description: Vha68-1/Vha68-2 mRNA levels in fly brains after drug feeding. In kind it is in vivo, Drosophila. The settings on record: fed. As to the method: (§1) Since Vha68-2 decreased more dramatically compared to Vha68-1 in Aβ42 fly brains (FIG. 4Q), an inference was made that NCH-51 treatment counteracts pathological reductions in Vha68-2 levels. […] More than 25 flies for each genotype were collected and frozen. Heads were mechanically isolated, and total RNA was extracted using TRIzol Reagent (Thermo Fisher Scientific) according to the manufacturer's protocol with an additional centrifugation step (16,000×g for 10 min) to remove cuticle membranes prior to the addition of chloroform. Total RNA was reverse-transcribed using PrimeScript RT-PCR kit (TaKaRa Bio), and qRT-PCR was performed using Thunderbird SYBR qPCR Mix (Toyobo) on a CFX96 real time PCR detection system (Bio-Rad Laboratories). The average threshold cycle value was calculated from at least three replicates per sample. Expression of genes of interest was standardized relative to GAPDH1. Primer sequences are provided below. Flies were fed with the food containing 10 μM or 50 μM NCH51 or vehicle (final concentration 0.02% dimethyl sulfoxide) from the day after eclosion. These food vials were changed every 3-4 days.

In a further assay the test system is Aβ42. Nature of the assay: Aβ42 levels in fly brains (western blot). Format: in vivo, Drosophila. The settings on record: Aβ42 flies, fed. How it is done: Aβ42 flies were treated with 0, 10, or 50 μM of NCH-51 during aging to examine its effects on neurodegeneration. […] Western blotting was performed as described previously. To detect human Aβ42, ten fly heads for each genotype were homogenized in Tris-Glycine SDS sample buffer, and the same amount of the lysate was loaded to 18% Tris-Glycine gels and transferred to nitrocellulose membrane. The membranes were boiled in PBS for 3 min, blocked with 5% nonfat dry milk, blotted with the anti-AD 6E10 antibody (Signet, Covance), incubated with appropriate secondary antibody and developed using ECL Western Blotting Detection Reagents (GE Healthcare Life Sciences). The membranes were also probed with anti-tubulin (Sigma-Aldrich) as the loading control in each experiment. To detect human tau, ten fly heads for each genotype were homogenized in Tris-Glycine SDS sample buffer, and the same amount of the lysate was loaded to each lane of 10% Tris-Glycine gels and transferred to nitrocellulose membrane. The membranes were blocked with 5% nonfat dry milk, blotted with the antibodies described below, incubated with the appropriate secondary antibody and developed using ECL Prime Western Blotting Detection Reagent (GE Healthcare Life Sciences). […] Imaging was performed with ImageQuant LAS 4000 (GE Healthcare Life Sciences), and the signal intensity was quantified using Image J (NIH).

Assay [4] relates to 16 genes related to synaptic biology. Nature of the assay: mRNA levels of key regulator genes of neuronal activity in Aβ42 fly brains. In kind it is in vivo, Drosophila. How it is done:
as §1, with “Aβ42 flies were treated with 0, 10, or 50 μM of NCH-51 during aging” for “Since Vha68-2 decreased more dramatically compared”, “examine its effects on neurodegeneration.” for “Vha68-1 in Aβ42 fly brains (FIG. 4Q), an inference was made that NCH-51 treatment counteracts pathological reductions in Vha68-2 levels.”

SMILES strings stand for the structures. “Also recorded” adds a separate entry of the source.

In the case of `CC(C)C(=O)SCCCCCCC(=O)Nc1nc(-c2ccccc2)cs1` [NCH-51], in assay [1] (3 μM, 24-hr, iNs, P<0.001), the “SCL17A7 mRNA level” value is “dramatically elevates” and the “presynaptic SYN1 mRNA level” value is “dramatically elevates”. In addition, the HOMER1 levels entry in assay [1] (ATP6V1A KD iNs or isogenic controls) is “increased the HOMER1 levels”. For the same compound, the “postsynaptic PSD95” value in assay [1] (iNs) is recorded as “no effect”. Further, the SYN1 protein level result in assay [1] (iNs, 3 μM, P<0.01) is given as “similarly increased”. For the same compound, the VGLUT protein level entry in assay [1] (iNs, 3 μM, P<0.05) was “similarly increased”. Moreover, the “restoration of neuronal activity (MEA)” value in assay [2] (ATP6V1A KD iNs) is “partially restoring neuronal activity”. Also, the “neuronal activity (MEA spike events)” value in assay [2] (iNs) was “potent activator of neuronal activity”. In addition, in assay [3] (Aβ42 fly brains, dose-dependent), the “mRNA levels of Vha68-2” value was “significantly increased; also recorded: increased mRNA levels of Vha68-2”. Further, the “mRNA levels of Vha68-1 or Vha68-2” value in assay [3] (control flies) is “did not increase”. Moreover, the “Aβ42 levels in fly brains” value with Aβ42 is listed as “did not affect”. Further, the “mRNA levels of synaptic biology related genes” value in assay [4] (dose-dependent) was “increased mRNA levels of synaptic biology related genes”. In assay [4] (fed), the “number of key regulator genes of neuronal activity with increased mRNA levels” value was 9 out of 16.

These data come from US20240327427A1, “NEW COMPOUNDS FOR THE TREATMENT OF ALZHEIMER'S DISEASE” (Icahn School of Medicine at Mount Sinai, priority 2020, published 2024).
